Measured values taken from ChEMBL document CHEMBL1201862, “PubChem BioAssay data set” (2004).
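Where inhibition never reached the appropriate level, the endpoint shown equals the highest concentration tested. Otherwise, values were interpolated linearly from a five-concentration, 48-hour dose response in 96-well plates. At the GI50, growth is halved.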 Calls of active or inactive are those of the source. Rule as the data show it: active = GI50 up to about 1.1 µM and inactive = higher.

Columns and labels:
Assay in all cases: NCI anticancer screen, dose series, 48 h
786-0 = system: 786-0
A498 = system: A498
A549 = system: A549
ACHN = system: ACHN
CAKI-1 = system: CAKI-1
CCRF-CEM = system: CCRF-CEM
COLO 205 = system: COLO 205
DU-145 = system: DU-145
EKVX = system: EKVX
HCC 2998 = system: HCC 2998
HCT-116 = system: HCT-116
HCT-15 = system: HCT-15
HL-60 = system: HL-60
HOP-62 = system: HOP-62
HOP-92 = system: HOP-92
HT-29 = system: HT-29
Hs-578T = system: Hs-578T
IGROV-1 = system: IGROV-1
K562 = system: K562
KM12 = system: KM12
LOX IMVI = system: LOX IMVI
M14 = system: M14
MCF7 = system: MCF7
MDA-MB-231 = system: MDA-MB-231
MDA-MB-435 = system: MDA-MB-435
MDA-N = system: MDA-N
MOLT-4 = system: MOLT-4
Malme-3M = system: Malme-3M
NCI-H226 = system: NCI-H226
NCI-H23 = system: NCI-H23
NCI-H460 = system: NCI-H460
NCI-H522 = system: NCI-H522
NCI/ADR-RES = system: NCI/ADR-RES
OVCAR-3 = system: OVCAR-3
OVCAR-4 = system: OVCAR-4
OVCAR-5 = system: OVCAR-5
OVCAR-8 = system: OVCAR-8
PC-3 = system: PC-3
RPMI-8226 = system: RPMI-8226
RXF 393 = system: RXF 393
SF-268 = system: SF-268
SF-295 = system: SF-295
SF-539 = system: SF-539
SK-MEL-28 = system: SK-MEL-28
SK-MEL-5 = system: SK-MEL-5
SK-OV-3 = system: SK-OV-3
SN12C = system: SN12C
SNB-19 = system: SNB-19
SNB-75 = system: SNB-75
SW-620 = system: SW-620
T47D = system: T47D
TK-10 = system: TK-10
U-251 = system: U-251
UACC-257 = system: UACC-257
UACC-62 = system: UACC-62
SK-MEL-2 = system: SK-MEL-2
UO-31 = system: UO-31

`CC(=O)c1sc2c(c1OC(=O)c1cccs1)c(=O)n(-c1ccccc1)c(=S)n2-c1ccccc1` was tested. Which GI50 (786-0) did it give?
Its GI50 is 4.75 µM (inactive).

What about the GI50 (A498) of the same compound?
The GI50 was 4.71 µM (inactive).

And the GI50 (A549)?
The GI50 was 62.5 µM (inactive).

What about the GI50 (ACHN) of the same compound?
The GI50 was 3.54 µM (inactive).

What about the GI50 (CAKI-1) of the same compound?
The GI50 was 30.8 µM (inactive).

What about the GI50 (CCRF-CEM) of the same compound?
Its GI50 is 3.9 µM (inactive).

And the GI50 (COLO 205)?
Its GI50 is 18 µM (inactive).

And the GI50 (DU-145)?
Its GI50 is 26.8 µM (inactive).

What about the GI50 (EKVX) of the same compound?
The GI50 was 25.1 µM (inactive).

And the GI50 (HCC 2998)?
The GI50 was 39.4 µM (inactive).

And the GI50 (HCT-116)?
Its GI50 is 16.9 µM (inactive).

What about the GI50 (HCT-15) of the same compound?
The GI50 was 17.5 µM.

And the GI50 (HL-60)?
The GI50 was 26 µM (inactive).

And the GI50 (HOP-62)?
The GI50 was 17 µM (inactive).

And the GI50 (HOP-92)?
The GI50 was 5.24 µM (inactive).

And the GI50 (HT-29)?
Its GI50 is 3.21 µM (inactive).

What about the GI50 (Hs-578T) of the same compound?
The GI50 was 3.66 µM (inactive).

What about the GI50 (IGROV-1) of the same compound?
Its GI50 is 18.6 µM (inactive).

And the GI50 (K562)?
The GI50 was 35.4 µM (inactive).

And the GI50 (KM12)?
The GI50 was 23 µM (inactive).

And the GI50 (LOX IMVI)?
Its GI50 is 4.84 µM (inactive).

And the GI50 (M14)?
The GI50 was 3.24 µM (inactive).

And the GI50 (MCF7)?
The GI50 was 21 µM (inactive).

And the GI50 (MDA-MB-231)?
Its GI50 is 14.4 µM (inactive).

What about the GI50 (MDA-MB-435) of the same compound?
The GI50 was 8.24 µM (inactive).

What about the GI50 (MDA-N) of the same compound?
Its GI50 is 5.5 µM (inactive).

And the GI50 (MOLT-4)?
The GI50 was 20.3 µM (inactive).

And the GI50 (Malme-3M)?
Its GI50 is 2.8 µM (inactive).

And the GI50 (NCI-H226)?
Its GI50 is 3.08 µM (inactive).

And the GI50 (NCI-H23)?
The GI50 was 19.3 µM (inactive).

And the GI50 (NCI-H460)?
The GI50 was 12.3 µM (inactive).

What about the GI50 (NCI-H522) of the same compound?
The GI50 was 0.359 µM (active).

And the GI50 (NCI/ADR-RES)?
The GI50 was 15.2 µM (inactive).

And the GI50 (OVCAR-3)?
The GI50 was 23 µM (inactive).

What about the GI50 (OVCAR-4) of the same compound?
Its GI50 is 22 µM (inactive).

What about the GI50 (OVCAR-5) of the same compound?
Its GI50 is 3.29 µM (inactive).

What about the GI50 (OVCAR-8) of the same compound?
Its GI50 is 5.01 µM (inactive).

And the GI50 (PC-3)?
Its GI50 is 3.63 µM (inactive).

And the GI50 (RPMI-8226)?
Its GI50 is 4.32 µM (inactive).

What about the GI50 (RXF 393) of the same compound?
Its GI50 is 3.86 µM (inactive).

What about the GI50 (SF-268) of the same compound?
Its GI50 is 6.07 µM (inactive).

And the GI50 (SF-295)?
Its GI50 is 2.62 µM (inactive).

What about the GI50 (SF-539) of the same compound?
Its GI50 is 2.41 µM (inactive).

And the GI50 (SK-MEL-28)?
The GI50 was 2.99 µM (inactive).

And the GI50 (SK-MEL-5)?
Its GI50 is 12.1 µM (inactive).

And the GI50 (SK-OV-3)?
The GI50 was 21.9 µM (inactive).

And the GI50 (SN12C)?
Its GI50 is 3.94 µM (inactive).

What about the GI50 (SNB-19) of the same compound?
Its GI50 is 12.5 µM (inactive).

And the GI50 (SNB-75)?
Its GI50 is 29.4 µM (inactive).

And the GI50 (SW-620)?
The GI50 was 22.4 µM (inactive).

What about the GI50 (T47D) of the same compound?
The GI50 was 15.9 µM (inactive).

And the GI50 (TK-10)?
Its GI50 is 23.7 µM (inactive).

What about the GI50 (U-251) of the same compound?
The GI50 was 5.86 µM (inactive).

And the GI50 (UACC-257)?
Its GI50 is 11.7 µM (inactive).

What about the GI50 (UACC-62) of the same compound?
The GI50 was 19.9 µM (inactive).

Which results are given for `Cc1cc(=O)[nH]c(-n2[nH]c(C)c(CCO)c2=O)n1`?
GI50 (786-0): > 100 µM (inactive); GI50 (A498): > 100 µM (inactive); GI50 (A549): > 100 µM (inactive); GI50 (ACHN): > 100 µM (inactive); GI50 (CAKI-1): > 100 µM (inactive); GI50 (CCRF-CEM): > 100 µM (inactive); GI50 (COLO 205): > 100 µM (inactive); GI50 (DU-145): > 100 µM (inactive); GI50 (EKVX): > 100 µM (inactive); GI50 (HCC 2998): > 100 µM (inactive); GI50 (HCT-116): > 100 µM (inactive); GI50 (HCT-15): > 100 µM; GI50 (HL-60): > 100 µM (inactive); GI50 (HOP-62): > 100 µM (inactive); GI50 (HT-29): > 100 µM (inactive); GI50 (Hs-578T): > 100 µM (inactive); GI50 (IGROV-1): > 100 µM (inactive); GI50 (K562): > 100 µM (inactive); GI50 (KM12): > 100 µM (inactive); GI50 (LOX IMVI): > 100 µM (inactive); GI50 (M14): > 100 µM (inactive); GI50 (MCF7): > 100 µM (inactive); GI50 (MDA-MB-231): > 100 µM (inactive); GI50 (MDA-MB-435): > 100 µM (inactive); GI50 (MDA-N): > 100 µM (inactive); GI50 (Malme-3M): > 100 µM (inactive); GI50 (NCI-H226): > 100 µM (inactive); GI50 (NCI-H23): > 100 µM (inactive); GI50 (NCI-H460): > 100 µM (inactive); GI50 (NCI-H522): > 100 µM (inactive); GI50 (NCI/ADR-RES): > 100 µM (inactive); GI50 (OVCAR-3): > 100 µM (inactive); GI50 (OVCAR-4): > 100 µM (inactive); GI50 (OVCAR-5): > 100 µM (inactive); GI50 (OVCAR-8): > 100 µM (inactive); GI50 (PC-3): > 100 µM (inactive); GI50 (RPMI-8226): > 100 µM (inactive); GI50 (RXF 393): > 100 µM (inactive); GI50 (SF-268): > 100 µM (inactive); GI50 (SF-295): > 100 µM (inactive); GI50 (SF-539): > 100 µM (inactive); GI50 (SK-MEL-28): > 100 µM (inactive); GI50 (SK-MEL-2): > 100 µM (inactive); GI50 (SK-MEL-5): > 100 µM (inactive); GI50 (SK-OV-3): > 100 µM (inactive); GI50 (SN12C): > 100 µM (inactive); GI50 (SNB-19): > 100 µM (inactive); GI50 (SW-620): > 100 µM (inactive); GI50 (T47D): > 100 µM (inactive); GI50 (TK-10): > 100 µM (inactive); GI50 (U-251): > 100 µM (inactive); GI50 (UACC-257): > 100 µM (inactive); GI50 (UACC-62): > 100 µM (inactive); GI50 (UO-31): > 100 µM (inactive)
